Measured values as given in patent US20230322854A1, “HUNTINGTIN-RELATED PEPTIDE AGENTS AND USES THEREOF” (UNIVERSITY OF SOUTHERN CALIFORNIA, priority 2020, published 2023).
“Also recorded” adds a separate entry of the source. No end group written: not given here.

Legend:
Htt-fibrils [1] = assay: EPR of spin-labeled peptide binding to Htt-fibrils; conditions: spin-labeled synthetic peptide
Description: FIG. 10 presents graphs showing testing binding of chemically synthesized HD1 or HD8 using Electron Paramagnetic Resonance (EPR). […] Panel B is a graph showing the results of experiments aimed at the determination of the stoichiometry of peptides binding to Httex1 molecules in the fibril, in which a spin-labeled peptide (HD1 or HD8) is added to 15 μM fibrils.
HD1 and HD8 binding was analyzed by electron paramagnetic resonance (EPR). The synthetic peptides were spin labeled using a free Cys at the C-terminus of the peptides. […] The stoichiometry of the complex was also studied using EPR, with varying amounts of peptide added to fibrils (FIG. 10, panel B).

Huntingtin protein = assay: In vitro Huntingtin aggregation assay imaged by electron microscopy; type: biochemical; conditions: synthetic peptide, 6 days
Description: Synthetic HD1 and HD8 were also tested for their ability to inhibit fibril formation in an in vitro Huntingtin aggregation assay. In this assay, Huntingtin protein aggregated over a period of 6 days, forming fibrils that could be imaged using electron microscopy (FIG. 8; Controls).

α-Synuclein fibrils = α-Synuclein fibrils (Homo sapiens, UniProt P37840); assay: Radioactive binding assay, α-Synuclein fibrils; conditions: radiolabeled peptide
Description: (§1) The binding of the peptide library was determined using a radioactive binding assay. In this assay, peptides were radiolabeled by translating the mRNA coding for these peptides in the presence of ^35S-methionine using rabbit reticulocyte lysate (Jackson, et al. (1983) Methods Enzymol 96: 50-74). These peptides were translated in an mRNA display format and were thus linked to their encoding mRNA, as described above. After purification by dT chromatography, the radiolabeled peptides were incubated with Huntingtin fibrils immobilized on Neutravidin Agarose or Streptavidin Ultralink beads. The beads were then filtered through a Spin X column (Corning) to separate the supernatant and beads, then washed to remove unbound sequences. The supernatant, washes, and beads were all counted in a scintillation counter to determine the counts in each sample. The percent bound was determined by dividing the counts on the beads with the total counts (beads+washes+supernatant).
(§2) HD1 and HD8 were also tested for binding specificity. Radiolabeled HD1 and HD8 were incubated with monomeric Huntingtin, unbundled Htt-fibrils, or α-Synuclein fibrils (α-Synuclein is another protein known to aggregate and form fibrils).

Htt-fibrils [2] = assay: Competition binding of synthetic peptide against radiolabeled peptide on immobilized fibrils; conditions: competitor = synthetic peptide in DMSO, 3.2 Fibril; for binding of radiolabeled HD8 to Htt-fibrils on addition of synthetic peptide: not to the same extent as with radiolabeled HD1
Description: Radiolabeled HD1 or HD8 were bound to immobilized fibrils and the appropriate compound was tested in a competition binding assay. From left to right and for each dataset shown on the graph (i.e., “HD1” and “HD8”), the bars represent “No Target+DMSO”, “No Target+HD1”, “No Target+HD8”, “3.2 Fibril+DMSO”, “3.2 Fibril+HD1”, and “3.2 Fibril+HD8”.
HD1 and HD8 were chemically synthesized and purified by reverse-phase HPLC and resuspended in DMSO. In order to verify that these synthetic peptides were functional for binding, we designed a competition experiment. We radiolabeled HD1 and HD8 above then tested to see if synthetic HD1 or HD8 would compete and reduce binding of the radiolabeled peptides. […] Binding to Htt-fibrils (3.2 Fibril+DMSO) was reduced by the addition of synthetic HD1 (3.2 Fibril+HD1) or by addition of synthetic HD8 (3.2 Fibril+HD8).

[3] = Radioactive binding assay, beads without target (no target control); conditions: radiolabeled peptide
Description: as §1

Huntingtin Exon 1 Q39 = target: T1, Huntingtin Exon 1 Q39 (Homo sapiens, UniProt P42858, DUP21-38); assay: Co-localization of Alexa 488-labeled peptide with Httex1 Q39-RFP in fixed N2A cells; type: cell-based, mouse; conditions: fixed N2A cells transfected with Httex1 Q39-RFP
T1 construct: expressing Huntingtin Exon 1 Q39 (mutant Huntingtin with 39 CAG repeats) fused to red fluorescent protein (tagRFP); expressed in transfected cells; host or cells: N2A (mouse neuroblastoma cell line)
T1 sequence (P42858 with tags, fused parts or gaps DUP21-38): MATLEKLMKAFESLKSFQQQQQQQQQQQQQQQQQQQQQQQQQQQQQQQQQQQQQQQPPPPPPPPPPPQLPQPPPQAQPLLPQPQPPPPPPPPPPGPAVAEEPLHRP
Description: In these experiments, N2A cells (mouse neuroblastoma cell line) were transfected with Httex1 Q39 fused with RFP (middle column). Cells were fixed and stained for HD 1 or HD 8 with Alexa 488 (left column). Co-localization of HD1/HD8 with Httex1 aggregates is shown in the merged image (co-localization observed in cells is indicated by white arrows). The “CTRL” rows show the non-transfected cells, which were treated with 5 times more peptide to confirm the localization was not due to aggregations of peptides or off-target binding occurring in the cell.
HD1 and HD8 were also tested to see if the synthetic peptide recognized Huntingtin fibrils from cells. In this assay, HD1 and HD8 are were labeled with the fluorescent dye, Alexa 488 and were incubated with fixed N2A cells (a mouse neuroblastoma cell line) that were expressing Huntingtin Exon 1 Q39 (mutant Huntingtin with 39 CAG repeats) fused to red fluorescent protein (tagRFP). In control experiments, with no Huntingtin exon 1 (Q39)-RFP fusion (Httex1 Q39) transfected, a diffuse signal is observed with HD1 and HD8 peptides (FIG. 11; Controls).

monomeric Huntingtin = assay: Radioactive binding assay, monomeric Huntingtin; conditions: radiolabeled peptide
Description: as §1
HD1 through HD4 were also tested for binding to monomeric Huntingtin (FIG. 5).
as §2

[4] = tested on: unbundled Huntingtin fibrils (exon 1); assay: Radioactive binding assay, immobilized unbundled Huntingtin fibrils; conditions: for binding to Htt-fibrils: radiolabeled mRNA-peptide fusions, fibrils immobilized on beads
Source text: Messenger RNA (mRNA) display (described in (Roberts, et al. (1997) Proc Natl Acad Sci USA 94: 12297-302, Takahashi, et al. (2003) Trends Biochem Sci 28: 159-65); FIG. 2) was used to engineer peptide agents that bind to unbundled fibrils of Huntingtin exon 1. To do this, unbundled Huntingtin fibrils were generated by mixing biotinylated Huntingtin protein (exon 1; FIG. 1) with non-biotinylated exon 1 Huntingtin protein at a ratio of 1:20 (˜5% biotinylated Huntingtin). These fibrils were then immobilized on Neutravidin agarose (Thermo Fisher) or Streptavidin ultralink beads (Thermo Fisher) via the attached biotin. A MX9 (where X is any of the 20 natural amino acids) mRNA display library was generated using published procedures (Takahashi, et al. (2009) Methods Mol Biol 535: 293-314) and incubated with immobilized fibrils. Non-binding sequences were washed away and the remaining fibril binding peptides were amplified via RT-PCR. This process was repeated seven times.
as §1

Httex1Q72 aggregates = target: T2, Httex1Q72 aggregates (Homo sapiens, UniProt P42858, INS38QQQQQQQQQQQQQQQQQQQQQQQQQQQQQQQQQQQQQQQQQQQQQQQQQQQ); assay: Labeling of Httex1Q72 aggregates in fixed transfected HEK293 cells; type: cell-based; conditions: fixed cells 24 h after transfection, 0.1 micromolar peptide overnight
T2 construct: Httex1Q72 (without RFP) was transfected into HEK293 cells; expressed in transfected cells
T2 sequence (P42858 with tags, fused parts or gaps limits assumed, stated change not applied): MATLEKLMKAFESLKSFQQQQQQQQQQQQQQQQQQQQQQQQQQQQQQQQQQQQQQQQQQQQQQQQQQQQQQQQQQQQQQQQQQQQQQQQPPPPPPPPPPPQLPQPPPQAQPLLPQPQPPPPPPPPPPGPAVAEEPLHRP
Source text: Left panels show fluorescent images (top left panel: nuclear stain to visualize all cells; middle left panel: fluorescein signal arising from the HD8-SP10-HD1-fluorescein peptide; bottom left panel: antibody against fluorescein to further amplify fluorescein signal). Right panels show phase contrast image of the same field. Arrows point to cytoplasmic aggregates that could be visualized with fluorescent signals or under phase contrast. Asterisks mark intranuclear aggregates that were labeled with HD8-SP10-HD1-fluorescein but not anti-fluorescein antibody.
Next, we tested the ability of HD peptides to bind Httex1 aggregates formed in cultured cells. To do this, Httex1Q72 (without RFP) was transfected into HEK293 cells. […] The antibody labeled the rim of the cytoplasmic aggregates and the signal also surrounded some cell nuclei. Little antibody staining was observed on intranuclear aggregates.

Httex1 aggregates [5] = assay: Labeling of Httex1 aggregates in brain sections of R6/1 mice; design: species or system mouse; conditions: R6/1 mice (34 weeks) versus age-matched control
Source text: Brain sections from age-matched littermate control and R6/1 mouse are shown in this figure.
HD8-HD1-fluorescein was also used on brain sections from R6/1 mice (34 weeks).

Httex1 aggregates [6] = assay: Labeling of Httex1 aggregates in retinal sections of Huntington mouse models; conditions: 34-week-old R6/1 mice, 0.1 micromolar
Source text: FIG. 28 presents fluorescence microscopy pictures showing that HD8-Alexa488 labels aggregated Httex1 in retina sections from two different mouse model of Huntington disease. Left panels show nuclear stain that labels all cells. Right panels show signal from HD8-Alexa488. Top panels show a retinal section from a R6/1 mouse, and bottom panels show a retinal section from a zQ175KI mouse.
Left panels show nuclear stain that labels all cells (A1 and B1), and right panels show signal from HD8-SP10-HD1-fluorescein (A2 and B2). Top panels are higher magnification that show the ganglion cell layer of the retina, and the bottom panels are lower magnification micrographs that show all retinal layers. Labeling of all retinal layers is seen when the HD peptides are dimerized. The phase contrast panel to the left of the bottom panels show the corresponding retinal layers: ONL: outer nuclear layer that contain rod and cone photoreceptor cells, INL: inner nuclear layer that contains cell bodies from horizontal cells, bipolar cells, amacrine cells and Müller cells, GCL: ganglion cell layer.
To see whether HD peptides bind Httex1 aggregates formed in vivo, we used tissues from two different Huntington mouse models, R6/1 (34 weeks old) and zQ175KI (48 weeks). FIG. 28 show retinal sections from these mice incubated with 2 micromolar of HD8 conjugated with Alexa488 at its carboxyl terminus.
HD8-HD1-fluorescein (0.1 micromolar) was also used on retinal sections from 34-week-old R6/1 mice (FIG. 29). […] In addition, weaker signal from intranuclear aggregates was also observed. Further, the signal can now be detected in all layers of the retina where the nuclei reside.

[7] = target: unbundled fibrils of Huntingtin exon 1 (about 5% biotinylated), immobilized on beads (UniProt P42858); assay: radioactive binding assay, fibrils immobilised on beads
[8] = listed as HD8-SP10-HD1-fluorescein

| EPR central line amplitude upon addition of Htt fibrils (peptide-fibril complex formation) (Htt-fibrils [1]) | binding to α-Synuclein fibrils (α-Synuclein fibrils) | binding of radiolabeled HD1 to Htt-fibrils on addition of synthetic peptide (Htt-fibrils [2]) | binding of radiolabeled HD8 to Htt-fibrils on addition of synthetic peptide (Htt-fibrils [2]) | colocalization of Alexa 488 signal and RFP signal (Huntingtin Exon 1 Q39) | binding to monomeric Huntingtin (monomeric Huntingtin) | binding to Htt-fibrils in the presence of serum ([4]; serum diluted 1:2, 1:5 or 1:10 with buffer (TBST)) | fold less binding as compared with HD1 and HD8 [7] [fold] | Substance | inhibition of fibril formation (Huntingtin protein) | binding to beads without target [3] | binding to Htt-fibrils [4] | labeling of Httex1Q72 aggregates (Httex1Q72 aggregates) | labeling of Httex1Q72 aggregates (Httex1Q72 aggregates; [8]) | labeling of brain sections (Httex1 aggregates [5]) | labeling of brain sections (Httex1 aggregates [5]; [8]) | labeling of retinal sections (Httex1 aggregates [6]) | labeling of retinal sections (Httex1 aggregates [6]; [8]) |
| --- | --- | --- | --- | --- | --- | --- | --- | --- | --- | --- | --- | --- | --- | --- | --- | --- | --- |
| decrease in central line amplitude | little to no binding | reduced | similarly reduced | significant colocalization | little to no binding | serum partially inhibits the binding |  | MDWWPMWPSL [HD1] | significant inhibition of fibril formation | little to no binding to beads without target; also recorded: little to no binding | demonstrated binding to Htt-fibrils; also recorded: bind to Htt-fibrils; also recorded: show binding to Htt-fibrils |  |  |  |  |  |  |
| decrease in central line amplitude | little to no binding | reduced | similarly reduced | significant colocalization | little to no binding |  |  | MWQMMNGMSQ [HD8] | significant inhibition of fibril formation | little to no binding to beads without target; also recorded: little to no binding; also recorded: low binding to beads without target | good binding to Htt-fibrils; also recorded: bind to Htt-fibrils; also recorded: show binding to Htt-fibrils |  |  |  |  |  |  |
|  |  |  |  |  |  |  |  | HD8-HD1-fluorescein: HD8-HD1 labeled with fluorescein at its carboxyl terminus (MWQMMNGMSQGSGTSGSSGSMDWWPMWPSL-fluorescein) |  |  |  | strong labeling of the round cytoplasmic Httex1Q72 aggregates (arrows) and intranuclear aggregates | bound Httex1Q72 aggregates | abundant signal from R6/1 brain | labels Httex1 aggregates in brain section | Robust signal from the peptide can be seen in the ganglion cell layer | enhanced reactivity of Httex1 aggregates in all retinal layers |
|  |  |  |  |  |  |  | 10 | QBP1 (peptide) |  |  |  |  |  |  |  |  |  |
